Measurements published in US11291684B2, “Treatment of glaucoma” (TX MEDIC AB, priority 2017, dated 2022).

Experiments:
[1] = Body weight and activity of rats in glaucoma model; type: in vivo, Sprague Dawley rats; conditions: rat; day 28; treated animals gaining less weight
Excerpt: (§1) Measured End-Points • IOP twice weekly throughout study from day 0 to day 28; • Immunohistochemistry for counting RGC that are immunoreactive for brain-specific homeobox/POU domain protein 3A (Brn3a) at day 28 (RGC survival); • Immunohistochemistry for laminin and fibronectin to evaluate scarring in the trabecular meshwork at day 28 in Groups 1 and 2; • Anterior segment and OCT imaging at day 28 to examine the angle and the thickness of the retinal nerve fiber layer comprising RGC axons; and • Body weight at day 28.

laser-induced CNV = assay: Isolectin B4 and collagen IV staining of RPE/choroidal/sclera wholemounts in laser-induced CNV model; type: in vivo, C57BL/6J mice
Experimental: Mice were anaesthetized with an intraperitoneal injection of 75 mg/kg ketamine and 7.5 mg/kg xylazine. The pupils were dilated with 1% atropine and 2.5% phenylephrine (Bausch & Lomb). To induce CNV, the rupture of Bruch's membrane-choroid was achieved by laser photocoagulation using the HGM Elite 532 Green Laser (Litechnica Ltd, Middesex, UK) with the spot size of 100 μm, 250 mW power and 100 msec duration. The laser spots were placed between retinal vessels and 2 to 3 disc-diameter away from the optic disc. The formation of a bubble at the site of laser application indicates the successful rupture of Bruch's membrane. Only laser burns in which a bubble was produced were included in this study. […] Three laser burns were applied to each retina.
Immediately after CNV induction, all mice were injected subcutaneously with 500 μl of dextran sulfate or saline. The injection was repeated once daily for 9 days post laser-CNV induction.
On day 10 post-CNV induction, all mice were sacrificed and eyes were carefully removed. All eyes were fixed in 2% paraformaldehyde/PBS (Sigma-Aldrich, Dorset, UK) for 2 h at room temperature and then washed and stored in PBS at 4° C. RPE-choroid-sclera wholemounts were prepared using the protocol described. Briefly, the anterior segment of the eye, including the cornea, ciliary body, iris and the lens were removed. Five vertical cuts were made to the eye cup, and the retinal tissue was then carefully removed. The extra ocular tissues, including conjunctiva and ocular muscles were carefully removed from the eye-cup (containing RPE/choroid/sclera). The RPE/choroidal/sclera wholemounts were further processed for Griffonia simplicifolia lectin 1-isolectin B4 and collagen IV immunostaining.
CNV was detected using the well-established isolectin B4 and collagen IV labelling technique. Isolectin B4 labels both infiltrating macrophages and vascular endothelial cells. Collagen IV labels the basal lamina of blood vessels. Both markers have been used widely to detect CNV.
RPE/choroidal/sclera wholemounts were permeablized with 0.5% Triton X-100/PBS for 1 h at room temperature. The samples were then blocked with 10% BSA in 0.5% Triton X-100/PBS for 1 h and incubated with biotinylated Griffonia simplicifolia lectin 1-isolectin B4 (GSL Isolectin B4, 1:50, Vector Laboratories Ltd, UK) and collagen IV (1:50, BIO-RAD, UK) overnight at 4° C. After thorough washing in PBS (10 minutes×3), samples were incubated with streptavidin-fluorescein isothiocyanate (FITC) (1:100, Vector laboratories, UK) and goat anti rabbit AF594 (1:100, Invitrogen, UK) for two hours at room temperature. Samples were flat-mounted on glass slides with Vectashield Mounting Medium (Vector Laboratories Ltd, UK) and observed by fluorescent microscopy.
Lecia fluorescent microscope was used to acquire images from above prepared RPE-choroidal/sclera wholemount samples. A 10× objective lens was used to allow capturing the whole area of a CNV. The imaging software ImageJ was used to analyze the images. To measure the size of CNV, the border of CNV was outlined manually and the size was automatically calculated using Image J software.
All data (the size of CNV in each group) were expressed as mean±SEM. Student t test was used to compare the difference between the dextran sulfate group and the saline control group.
24 C57BL/6J mice (10˜12 weeks old) were used in this study. […]

[2] = system: retinal ganglion cell (RGC); assay: Retinal ganglion cell counts by immunohistochemistry in TGF-β-induced glaucoma model; type: in vivo, Sprague Dawley rats; conditions: rat TGF-β glaucoma model; day 28; vs saline
Experimental: Glaucoma was induced in adult male Sprague Dawley rats by repeat twice weekly intracameral (IC) injections of transforming growth factor-β (TGF-β) to increase intraocular pressure (IOP). Sustained increases in IOP (after two weeks) leads to death of retinal ganglion cells (30-40%). Dextran sulfate (Tikomed AB, Sweden, WO 2016/076780) was administered at 15 mg/kg by daily subcutaneous injection from […] to assess RGC protection compared to controls.
as §1, with “28. […]” for “28.”
For quantification of RGC in retinal sections, RPBMS^+/DAPI^+ RGC were counted in 15 μm thick parasagittal sections of retina from a 250 μm linear portion from the ganglion cell layer at either side of the optic nerve. Four retinal sections from each eye in the control and treatment groups were quantified. […]

[3] = mouse laser-CNV, day 10, 0.6 mg/ml, 500 μl s.c. once daily, mean±SEM

dextran sulfate
body weight difference vs saline treated animals [1]: small but non-significant difference
effects on the laser-induced CNV (laser-induced CNV; dose of 0.6 mg/ml per day): neither anti-angiogenic nor pro-angiogenic effects
difference vs saline control in lectin B4+ lesions (laser-induced CNV; mouse laser-CNV, day 10): no statistical difference
difference vs vehicle (saline) in collagen IV new blood vessel area (laser-induced CNV; mouse laser-CNV, day 10): no statistical significant difference
average isolectin B4 positive area (laser-induced CNV; [3]): 43972±2302 μm^2
means of area of new blood vessels (collagen IV) (laser-induced CNV; [3]): 54681±2378 μm^2
decline in RGC numbers present in the retina [2]: significantly prevented
